Where two headings read alike, the source gives them in different places. Starred links: 1 amine or outer side, 2 acyl side, 3 side chain; linkers in the order of their positions; H or OH if unused. Positions of bridges follow the written chain, without caps; N, C: chain ends. Non-standard residues stand in square brackets, D forms with d. Residues, ends and D or L forms follow the SMILES beside them. *: point of attachment. Bip(4'-NHCO-C6H4-3-CH2COOH) = N[C@@H](Cc1ccc(-c2ccc(NC(=O)c3cccc(CC(=O)O)c3)cc2)cc1)C(=O)O; X5 = Cn1nc(C(=O)Nc2ccc(-c3ccc(C[C@H](N[*:1])C(=O)[*:2])cc3)cc2)c2ccccc21; dArg(ω-(2S)-2,3-diOHpropyl) = N=C(NCCC[C@@H](N)C(=O)O)NC[C@H](O)CO; Bip(4'-NH) = O=C([C@H](Cc1ccc(-c2ccc(N[*:3])cc2)cc1)N[*:1])[*:2]; dArg(ω-Bn(3-CH2OH)) = N=C(NCCC[C@@H](N)C(=O)O)NCc1cccc(CO)c1; Indazole3carbonyl(1-CH2COOH) = O=C(O)Cn1nc(C(=O)*)c2ccccc21; X54 = N=C(NCCC[C@@H](N[*:1])C(=O)[*:2])NCc1cccc(-n2ccnc2)c1; Bip(4'-COOH) = N[C@@H](Cc1ccc(-c2ccc(C(=O)O)cc2)cc1)C(=O)O; X19 = N=C(NCCC[C@@H](N[*:1])C(=O)[*:2])NCc1ccc2ccccc2c1; X66 = N=C(NCCC[C@@H](N[*:1])C(=O)[*:2])NCc1ccc(F)c(F)c1; X7 = N=C(NCCC[C@@H](N[*:1])C(=O)[*:2])NCc1ccc2occc2c1; dArg(ω-Bn) = N=C(NCCC[C@@H](N)C(=O)O)NCc1ccccc1; Ala(morpholin-4-yl) = N[C@@H](CN1CCOCC1)C(=O)O; Bip = N[C@@H](Cc1ccc(-c2ccccc2)cc1)C(=O)O; Cha = N[C@@H](CC1CCCCC1)C(=O)O; Tle = CC(C)(C)[C@H](N)C(=O)O; Sar = CNCC(=O)O
Molecular target: TNFα (Homo sapiens, UniProt P01375)
Assay: TNF-Induced HEK-Blue Assay
Type: cell-based
[1] = HEK-Blue-CD40L cells, NF-kB-driven secreted alkaline phosphatase reporter, TNFα 0.5 ng/ml, 18 h, read-out: TNF induced HEK-Blue assay IC50 value

TNFα, sequence (P01375 77-233 limits assumed): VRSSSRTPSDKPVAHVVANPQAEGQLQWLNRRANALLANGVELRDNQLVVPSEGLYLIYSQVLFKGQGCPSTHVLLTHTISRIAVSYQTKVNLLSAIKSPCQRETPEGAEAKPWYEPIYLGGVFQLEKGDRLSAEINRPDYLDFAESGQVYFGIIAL

SMILES	IC50	IC50 [1]
CC(C)C[C@@H]1NC(=O)[C@H](CCCNC(=N)N)NC(=O)[C@H](C(C)C)NC(=O)[C@@H]2CCCN2C(=O)[C@H](C(C)C)NC(=O)[C@@H](CCCNC(=N)NCc2ccc3ccccc3c2)NC(=O)[C@H](CC(=O)O)NC(=O)[C@@H]2CCCN2C(=O)CN(C)C(=O)[C@H](Cc2ccc(-c3ccc(NC(=O)c4nn(CC(=O)O)c5ccccc45)cc3)cc2)NC(=O)[C@H](Cc2ccc(-c3ccccc3)cc2)NC(=O)[C@H](CN2CCOCC2)NC(=O)CSC[C@@H](C(=O)NCC(N)=O)NC1=O [Example 468] ({CH2CO}-[Ala(morpholin-4-yl)][Bip][Bip(4'-NH)](Indazole3carbonyl(1-CH2COOH))[Sar]PD[X19]VPVRLCG-NH2; thioether N-13)	< 50 nM	–
CC(C)C[C@@H]1NC(=O)[C@H](CCCNC(=N)N)NC(=O)[C@H](C(C)C)NC(=O)[C@@H]2CCCN2C(=O)[C@H](C(C)C)NC(=O)[C@@H](CCCNC(=N)NCc2ccc(F)c(F)c2)NC(=O)[C@H](CC(=O)O)NC(=O)[C@@H]2CCCN2C(=O)CN(C)C(=O)[C@H](Cc2ccc(-c3ccc(NC(=O)c4nn(CC(=O)O)c5ccccc45)cc3)cc2)NC(=O)[C@H](Cc2ccc(-c3ccccc3)cc2)NC(=O)[C@H](CN2CCOCC2)NC(=O)CSC[C@@H](C(=O)NCC(N)=O)NC1=O [Example 469] ({CH2CO}-[Ala(morpholin-4-yl)][Bip][Bip(4'-NH)](Indazole3carbonyl(1-CH2COOH))[Sar]PD[X66]VPVRLCG-NH2; thioether N-13)	< 50 nM	–
CC(C)C[C@@H]1NC(=O)[C@H](CCCNC(=N)N)NC(=O)[C@H](C(C)C)NC(=O)[C@@H]2CCCN2C(=O)[C@H](C(C)C)NC(=O)[C@@H](CCCNC(=N)NCc2cccc(-n3ccnc3)c2)NC(=O)[C@H](CC(=O)O)NC(=O)[C@@H]2CCCN2C(=O)CN(C)C(=O)[C@H](Cc2ccc(-c3ccc(NC(=O)c4nn(CC(=O)O)c5ccccc45)cc3)cc2)NC(=O)[C@H](Cc2ccc(-c3ccccc3)cc2)NC(=O)[C@H](CN2CCOCC2)NC(=O)CSC[C@@H](C(=O)NCC(N)=O)NC1=O [Example 470] ({CH2CO}-[Ala(morpholin-4-yl)][Bip][Bip(4'-NH)](Indazole3carbonyl(1-CH2COOH))[Sar]PD[X54]VPVRLCG-NH2; thioether N-13)	< 50 nM	–
CC(C)C[C@@H]1NC(=O)[C@H](CCCNC(=N)N)NC(=O)[C@H](C(C)C)NC(=O)[C@@H]2CCCN2C(=O)[C@H](C(C)C)NC(=O)[C@@H](CCCNC(=N)NCc2ccccc2)NC(=O)[C@H](CC(=O)O)NC(=O)[C@@H]2CCCN2C(=O)CN(C)C(=O)[C@H](Cc2ccc(-c3ccc(NC(=O)c4nn(C)c5ccccc45)cc3)cc2)NC(=O)[C@H](Cc2ccc(-c3ccccc3)cc2)NC(=O)[C@H](CN2CCOCC2)NC(=O)CSC[C@@H](C(=O)NCC(N)=O)NC1=O [Example 471] ({CH2CO}-[Ala(morpholin-4-yl)][Bip][X5][Sar]PD[dArg(ω-Bn)]VPVRLCG-NH2; thioether N-13)	–	< 50 nM
CC(C)C[C@@H]1NC(=O)[C@H](CCCNC(=N)N)NC(=O)[C@H](C(C)C)NC(=O)[C@@H]2CCCN2C(=O)[C@H](C(C)C)NC(=O)[C@@H](CCCNC(=N)NCc2ccc3ccccc3c2)NC(=O)[C@H](CC(=O)O)NC(=O)[C@@H]2CCCN2C(=O)CN(C)C(=O)[C@H](Cc2ccc(-c3ccc(NC(=O)c4nn(C)c5ccccc45)cc3)cc2)NC(=O)[C@H](Cc2ccc(-c3ccccc3)cc2)NC(=O)[C@H](CN2CCOCC2)NC(=O)CSC[C@@H](C(=O)NCC(N)=O)NC1=O [Example 472] ({CH2CO}-[Ala(morpholin-4-yl)][Bip][X5][Sar]PD[X19]VPVRLCG-NH2; thioether N-13)	–	50 to 200 nM
CC(C)C[C@@H]1NC(=O)[C@H](CCCNC(=N)N)NC(=O)[C@H](C(C)C)NC(=O)[C@@H]2CCCN2C(=O)[C@H](C(C)C)NC(=O)[C@@H](CCCNC(=N)NCc2ccc(F)c(F)c2)NC(=O)[C@H](CC(=O)O)NC(=O)[C@@H]2CCCN2C(=O)CN(C)C(=O)[C@H](Cc2ccc(-c3ccc(NC(=O)c4nn(C)c5ccccc45)cc3)cc2)NC(=O)[C@H](Cc2ccc(-c3ccccc3)cc2)NC(=O)[C@H](CN2CCOCC2)NC(=O)CSC[C@@H](C(=O)NCC(N)=O)NC1=O [Example 473] ({CH2CO}-[Ala(morpholin-4-yl)][Bip][X5][Sar]PD[X66]VPVRLCG-NH2; thioether N-13)	–	< 50 nM
CC(C)C[C@@H]1NC(=O)[C@H](CCCNC(=N)N)NC(=O)[C@H](C(C)C)NC(=O)[C@@H]2CCCN2C(=O)[C@H](C(C)C)NC(=O)[C@@H](CCCNC(=N)NCc2cccc(-n3ccnc3)c2)NC(=O)[C@H](CC(=O)O)NC(=O)[C@@H]2CCCN2C(=O)CN(C)C(=O)[C@H](Cc2ccc(-c3ccc(NC(=O)c4nn(C)c5ccccc45)cc3)cc2)NC(=O)[C@H](Cc2ccc(-c3ccccc3)cc2)NC(=O)[C@H](CN2CCOCC2)NC(=O)CSC[C@@H](C(=O)NCC(N)=O)NC1=O [Example 474] ({CH2CO}-[Ala(morpholin-4-yl)][Bip][X5][Sar]PD[X54]VPVRLCG-NH2; thioether N-13)	–	50 to 200 nM
CC(C)C[C@@H]1NC(=O)[C@H](CCCNC(=N)N)NC(=O)[C@H](C(C)C)NC(=O)[C@@H]2CCCN2C(=O)[C@H](C(C)C)NC(=O)[C@@H](CCCNC(=N)NC[C@H](O)CO)NC(=O)[C@H](CC(=O)O)NC(=O)[C@@H]2CCCN2C(=O)CN(C)C(=O)[C@H](Cc2ccc(-c3ccc(NC(=O)c4nn(CC(=O)O)c5ccccc45)cc3)cc2)NC(=O)[C@H](Cc2ccc(-c3ccccc3)cc2)NC(=O)[C@H](CN2CCOCC2)NC(=O)CSC[C@@H](C(=O)NCC(N)=O)NC1=O [Example 475] ({CH2CO}-[Ala(morpholin-4-yl)][Bip][Bip(4'-NH)](Indazole3carbonyl(1-CH2COOH))[Sar]PD[dArg(ω-(2S)-2,3-diOHpropyl)]VPVRLCG-NH2; thioether N-13)	< 50 nM	–
CC(C)C[C@@H]1NC(=O)[C@H](CCCNC(=N)N)NC(=O)[C@H](C(C)C)NC(=O)[C@@H]2CCCN2C(=O)[C@H](C(C)C)NC(=O)[C@@H](CCCNC(=N)NC[C@H](O)CO)NC(=O)[C@H](CC(=O)O)NC(=O)[C@@H]2CCCN2C(=O)CN(C)C(=O)[C@H](Cc2ccc(-c3ccc(NC(=O)c4nn(C)c5ccccc45)cc3)cc2)NC(=O)[C@H](Cc2ccc(-c3ccccc3)cc2)NC(=O)[C@H](CN2CCOCC2)NC(=O)CSC[C@@H](C(=O)NCC(N)=O)NC1=O [Example 476] ({CH2CO}-[Ala(morpholin-4-yl)][Bip][X5][Sar]PD[dArg(ω-(2S)-2,3-diOHpropyl)]VPVRLCG-NH2; thioether N-13)	–	< 50 nM
CC[C@H](C)[C@@H]1NC(=O)[C@@H](CCCNC(=N)NCc2cccc(CO)c2)NC(=O)[C@H](CC(=O)O)NC(=O)[C@H](Cc2cnc[nH]2)NC(=O)CN(C)C(=O)[C@H](Cc2ccc(-c3ccc(NC(=O)c4nn(CC(=O)O)c5ccccc45)cc3)cc2)NC(=O)[C@H](Cc2ccc(-c3ccccc3)cc2)NC(=O)[C@H](CC2CCCCC2)NC(=O)CSC[C@@H](C(=O)NCC(N)=O)NC(=O)[C@H](CC(C)C)NC(=O)[C@H](Cc2cnc[nH]2)NC(=O)[C@H](C(C)C)NC(=O)[C@@H]2CCCN2C1=O [Example 477] ({CH2CO}-[Cha][Bip][Bip(4'-NH)](Indazole3carbonyl(1-CH2COOH))[Sar]HD[dArg(ω-Bn(3-CH2OH))]IPVHLCG-NH2; thioether N-13)	< 50 nM	–
CC[C@H](C)[C@@H]1NC(=O)[C@@H](CCCNC(=N)NCc2cccc(CO)c2)NC(=O)[C@H](CC(=O)O)NC(=O)[C@H](Cc2cnc[nH]2)NC(=O)CN(C)C(=O)[C@H](Cc2ccc(-c3ccc(NC(=O)c4nn(C)c5ccccc45)cc3)cc2)NC(=O)[C@H](Cc2ccc(-c3ccccc3)cc2)NC(=O)[C@H](CC2CCCCC2)NC(=O)CSC[C@@H](C(=O)NCC(N)=O)NC(=O)[C@H](CC(C)C)NC(=O)[C@H](Cc2cnc[nH]2)NC(=O)[C@H](C(C)C)NC(=O)[C@@H]2CCCN2C1=O [Example 478] ({CH2CO}-[Cha][Bip][X5][Sar]HD[dArg(ω-Bn(3-CH2OH))]IPVHLCG-NH2; thioether N-13)	–	50 to 200 nM
CC[C@H](C)[C@@H]1NC(=O)[C@@H](CCCNC(=N)NCc2ccc3occc3c2)NC(=O)[C@H](CC(=O)O)NC(=O)[C@H](Cc2cnc[nH]2)NC(=O)CN(C)C(=O)[C@H](Cc2ccc(-c3ccc(NC(=O)c4nn(CC(=O)O)c5ccccc45)cc3)cc2)NC(=O)[C@H](Cc2ccc(-c3ccccc3)cc2)NC(=O)[C@H](CC2CCCCC2)NC(=O)CSC[C@@H](C(=O)NCC(N)=O)NC(=O)[C@H](CC(C)C)NC(=O)[C@H](Cc2cnc[nH]2)NC(=O)[C@H](C(C)C)NC(=O)[C@@H]2CCCN2C1=O [Example 479] ({CH2CO}-[Cha][Bip][Bip(4'-NH)](Indazole3carbonyl(1-CH2COOH))[Sar]HD[X7]IPVHLCG-NH2; thioether N-13)	< 50 nM	–
CC[C@H](C)[C@@H]1NC(=O)[C@@H](CCCNC(=N)N)NC(=O)[C@H](CC(=O)O)NC(=O)[C@H](Cc2cnc[nH]2)NC(=O)CN(C)C(=O)[C@H](Cc2ccc(-c3ccc(NC(=O)c4cccc(CC(=O)O)c4)cc3)cc2)NC(=O)[C@H](Cc2ccc(-c3ccccc3)cc2)NC(=O)[C@H](CN2CCOCC2)NC(=O)CSC[C@@H](C(=O)NCC(N)=O)NC(=O)[C@H](CC(C)C)NC(=O)[C@H](Cc2cnc[nH]2)NC(=O)[C@H](C(C)C)NC(=O)[C@@H]2CCCN2C1=O [Example 481] ({CH2CO}-[Ala(morpholin-4-yl)][Bip][Bip(4'-NHCO-C6H4-3-CH2COOH)][Sar]HD[dR]IPVHLCG-NH2; thioether N-13)	–	< 50 nM
CC[C@H](C)[C@@H]1NC(=O)[C@@H](CCCNC(=N)N)NC(=O)[C@H](CC(=O)O)NC(=O)[C@H](Cc2cnc[nH]2)NC(=O)CN(C)C(=O)[C@H](Cc2ccc(-c3ccc(NC(=O)c4cccc(CC(=O)O)c4)cc3)cc2)NC(=O)[C@H](Cc2ccc(-c3ccc(C(=O)O)cc3)cc2)NC(=O)[C@H](C(C)(C)C)NC(=O)CSC[C@@H](C(=O)NCC(N)=O)NC(=O)[C@H](CC(C)C)NC(=O)[C@H](Cc2cnc[nH]2)NC(=O)[C@H](C(C)C)NC(=O)[C@@H]2CCCN2C1=O [Example 482] ({CH2CO}-[Tle][Bip(4'-COOH)][Bip(4'-NHCO-C6H4-3-CH2COOH)][Sar]HD[dR]IPVHLCG-NH2; thioether N-13)	–	< 50 nM

Source: patent publication US20250145665A1, “MACROCYCLIC PEPTIDES USEFUL AS MODULATORS OF TNF ALPHA” (Bristol-Myers Squibb Company, priority 2023, published 2025)
